6 compounds from patent US9801960B2, “Probe for a biological specimen and labelling method and screening method using the probe” (CANON KABUSHIKI KAISHA, priority 2008, dated 2017) can be followed below.

System in one data set: not listed separately
As to the kind of experiment: Excitation and fluorescence emission wavelength measurement. Set-up: Stokes shift (λem − λex): unit not given here. The note with it: aqueous solution: 10 mg/mL solution in DMSO diluted 500-fold with purified water. It counts as physicochemical. Here is the method: It should be noted that the excitation wavelength and the fluorescence emission wavelength of the staining compound were determined by measuring an aqueous solution, which had been obtained by diluting 500-fold a 10 mg/mL solution of the staining compound in DMSO with purified water, with a fluorescence spectrophotometer FL 4500 manufactured by Hitachi High-Technologies Corporation.
Take `CCN1C(=O)/C(=c2\s/c(=C/c3ccc4c(c3)C3CCCC3N4c3cccc(SC)c3)c(=O)n2CC(=O)O)SC1=S` (stereo not drawn) [Dye 138]: the Excitation wavelength λex came out at 540 nm, the Fluorescence emission wavelength λem was determined as 690 nm and the “Stokes shift (λem − λex)” value turned out to be 150.
The matching figures for `CC[N+]1=C(C=c2s/c(=C/c3ccc4c(c3)C3CCCC3N4c3ccccc3)c(=O)n2CC(=O)O)C(C)(C)c2ccccc21` (stereo not drawn) [Dye 139]: 570 nm, 640 nm and 70.
The matching figures for `O=C(O)CN1C(=O)/C(=C2C=C/C(=C\c3ccc4c(c3)C3CCCC3N4c3ccccc3)C\2)SC1=S` (stereo not drawn) [Dye 140]: 510 nm, 650 nm and 140.
The matching figures for `O=C1/C(=C/c2ccc3c(c2)C2CCCC2N3c2ccccc2)Oc2ccc(I)cc21` (stereo not drawn) [Dye 141]: 380 nm, 490 nm and 110.
For `COc1ccc(N2c3ccc(/C=C4\Oc5ccc(I)cc5C4=O)cc3C3CCCC32)cc1` (stereo not drawn) [Dye 142], the Excitation wavelength λex was 530 nm, the Fluorescence emission wavelength λem came to 680 nm and the “Stokes shift (λem − λex)” value is reported as 150.
For `CC1(C)C(/C=C/C=C/C=C/C=C2\N(CCCCS(=O)(=O)O)c3ccc4ccccc4c3C2(C)C)=[N+](CCCCS(=O)(=O)[O-])c2ccc3ccccc3c21` [ICG, indocyanine green, reference compound] the same measures were 784 nm, 811 nm and 27.

For a further data set, the system named is Zebrafish juveniles. As to the kind of experiment: In vivo labelling of Zebrafish juveniles with probe for biological specimen. Set-up: key to Staining property: +++: stained; −: no stained; key to Fluorescence sensitivity: +++: strongly observed; ++: moderately observed; +: weakly observed; −: no stained. The note with it: 10 ng/mL in water, 1 hour, stereoscopic microscope. The method, boiled down:
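Five zebrafish juveniles were immersed in distilled water containing staining compound at 10 ng/mL (DMSO solution) for 1 hour. They were then washed three times with Egg Water, immobilised in 3% methylcellulose and imaged by stereomicroscope. Staining and fluorescence intensity were scored visually on a +++ to − scale.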
For `CCN1C(=O)/C(=c2\s/c(=C/c3ccc4c(c3)C3CCCC3N4c3cccc(SC)c3)c(=O)n2CC(=O)O)SC1=S` (stereo not drawn) [Dye 138], the “Site(s) to be labelled” value is “gastrointestinal tract”.
The same measure, in the same setting: then `CC[N+]1=C(C=c2s/c(=C/c3ccc4c(c3)C3CCCC3N4c3ccccc3)c(=O)n2CC(=O)O)C(C)(C)c2ccccc21` (stereo not drawn) [Dye 139], with “nose”; and `O=C(O)CN1C(=O)/C(=C2C=C/C(=C\c3ccc4c(c3)C3CCCC3N4c3ccccc3)C\2)SC1=S` (stereo not drawn) [Dye 140], with “gastrointestinal tract”.
Still for that read-out and setting: then `O=C1/C(=C/c2ccc3c(c2)C2CCCC2N3c2ccccc2)Oc2ccc(I)cc21` (stereo not drawn) [Dye 141], with “gastrointestinal tract”.
The same measure, in the same setting: for `COc1ccc(N2c3ccc(/C=C4\Oc5ccc(I)cc5C4=O)cc3C3CCCC32)cc1` (stereo not drawn) [Dye 142] the value was “gastrointestinal tract”.
Take `CC1(C)C(/C=C/C=C/C=C/C=C2\N(CCCCS(=O)(=O)O)c3ccc4ccccc4c3C2(C)C)=[N+](CCCCS(=O)(=O)[O-])c2ccc3ccccc3c21` [ICG, indocyanine green, reference compound]: the “Site(s) to be labelled” value is on record as “liver”.

Still in this data set, the particulars now being: 10 ng/mL, 1 hour, fluorescence intensity visually evaluated.
With `CCN1C(=O)/C(=c2\s/c(=C/c3ccc4c(c3)C3CCCC3N4c3cccc(SC)c3)c(=O)n2CC(=O)O)SC1=S` (stereo not drawn) [Dye 138], the Fluorescence sensitivity entry is listed as “+++”.
With `CC[N+]1=C(C=c2s/c(=C/c3ccc4c(c3)C3CCCC3N4c3ccccc3)c(=O)n2CC(=O)O)C(C)(C)c2ccccc21` (stereo not drawn) [Dye 139], the Fluorescence sensitivity entry is “+++”.
For `O=C(O)CN1C(=O)/C(=C2C=C/C(=C\c3ccc4c(c3)C3CCCC3N4c3ccccc3)C\2)SC1=S` (stereo not drawn) [Dye 140], the Fluorescence sensitivity entry was “+++”.
The same measure, in the same setting: for `O=C1/C(=C/c2ccc3c(c2)C2CCCC2N3c2ccccc2)Oc2ccc(I)cc21` (stereo not drawn) [Dye 141] the value was “+++”.
As for `COc1ccc(N2c3ccc(/C=C4\Oc5ccc(I)cc5C4=O)cc3C3CCCC32)cc1` (stereo not drawn) [Dye 142], the Fluorescence sensitivity result was “+++”.
Same read-out and setting: for `CC1(C)C(/C=C/C=C/C=C/C=C2\N(CCCCS(=O)(=O)O)c3ccc4ccccc4c3C2(C)C)=[N+](CCCCS(=O)(=O)[O-])c2ccc3ccccc3c21` [ICG, indocyanine green, reference compound] the value was “+”.

Still in this data set, the particulars now being: 10 ng/mL, 1 hour, visually evaluated.
For `CCN1C(=O)/C(=c2\s/c(=C/c3ccc4c(c3)C3CCCC3N4c3cccc(SC)c3)c(=O)n2CC(=O)O)SC1=S` (stereo not drawn) [Dye 138], the Staining property result is recorded as “+++”.
For the compound `CC[N+]1=C(C=c2s/c(=C/c3ccc4c(c3)C3CCCC3N4c3ccccc3)c(=O)n2CC(=O)O)C(C)(C)c2ccccc21` (stereo not drawn) [Dye 139], the Staining property result was “+++”.
In the case of `O=C(O)CN1C(=O)/C(=C2C=C/C(=C\c3ccc4c(c3)C3CCCC3N4c3ccccc3)C\2)SC1=S` (stereo not drawn) [Dye 140], the Staining property entry is “+++”.
The same measure, in the same setting: for `O=C1/C(=C/c2ccc3c(c2)C2CCCC2N3c2ccccc2)Oc2ccc(I)cc21` (stereo not drawn) [Dye 141] the value was “+++”; for `COc1ccc(N2c3ccc(/C=C4\Oc5ccc(I)cc5C4=O)cc3C3CCCC32)cc1` (stereo not drawn) [Dye 142], “+++”.
On the same count and under the same terms, then `CC1(C)C(/C=C/C=C/C=C/C=C2\N(CCCCS(=O)(=O)O)c3ccc4ccccc4c3C2(C)C)=[N+](CCCCS(=O)(=O)[O-])c2ccc3ccccc3c21` [ICG, indocyanine green, reference compound], with “+++”.

System in another data set: not listed separately
As to the kind of experiment: Storage stability of staining compound solution in DMSO. The note with it: 10 ng/mL in DMSO, closed glass container, normal temperature, 1 month; rate of change of absorbance and fluorescence intensity. The data set is classed as physicochemical. A digest of the protocol:
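Compounds held as 10 ng/mL DMSO solutions in closed glass containers at normal temperature for 1 month. Rates of change in absorbance and fluorescence intensity at a given wavelength versus start were scored: +++ <5%, ++ 5–15%, − >15%.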
Regarding `CCN1C(=O)/C(=c2\s/c(=C/c3ccc4c(c3)C3CCCC3N4c3cccc(SC)c3)c(=O)n2CC(=O)O)SC1=S` (stereo not drawn) [Dye 138], the Storage stability result is “+++ (rates of change of the absorbance and the fluorescence intensity are less than 5%, and thus, the storage stability is highly excellent)”.
On the same count and under the same terms, then `CC[N+]1=C(C=c2s/c(=C/c3ccc4c(c3)C3CCCC3N4c3ccccc3)c(=O)n2CC(=O)O)C(C)(C)c2ccccc21` (stereo not drawn) [Dye 139], with “+++ (rates of change of the absorbance and the fluorescence intensity are less than 5%, and thus, the storage stability is highly excellent)”.
Same read-out and setting: then `O=C(O)CN1C(=O)/C(=C2C=C/C(=C\c3ccc4c(c3)C3CCCC3N4c3ccccc3)C\2)SC1=S` (stereo not drawn) [Dye 140], with “+++ (rates of change of the absorbance and the fluorescence intensity are less than 5%, and thus, the storage stability is highly excellent)”; and `O=C1/C(=C/c2ccc3c(c2)C2CCCC2N3c2ccccc2)Oc2ccc(I)cc21` (stereo not drawn) [Dye 141], with “+++ (rates of change of the absorbance and the fluorescence intensity are less than 5%, and thus, the storage stability is highly excellent)”.
As for `COc1ccc(N2c3ccc(/C=C4\Oc5ccc(I)cc5C4=O)cc3C3CCCC32)cc1` (stereo not drawn) [Dye 142], the Storage stability entry was “+++ (rates of change of the absorbance and the fluorescence intensity are less than 5%, and thus, the storage stability is highly excellent)”.
Same read-out and setting: for `CC1(C)C(/C=C/C=C/C=C/C=C2\N(CCCCS(=O)(=O)O)c3ccc4ccccc4c3C2(C)C)=[N+](CCCCS(=O)(=O)[O-])c2ccc3ccccc3c21` [ICG, indocyanine green, reference compound] the value was “− (rates of change of the absorbance and fluorescence intensity are more than 15%, and thus, the storage stability is poor)”.
